Earlier results in US8906391B2, “Thermorod for active drug release and method for manufacturing the same” (Korea Sangsa Co., Ltd., priority 2008, dated 2014).

Settings: characteristics of the drugs, Table 1

Structure (SMILES)	Hydrophobicity (Log P)
CC(=O)O[C@@]12CO[C@@H]1C[C@H](O)[C@@]1(C)C(=O)[C@H](O)C3=C(C)[C@@H](OC(=O)[C@H](O)[C@@H](NC(=O)OC(C)(C)C)c4ccccc4)C[C@@](O)([C@@H](OC(=O)c4ccccc4)[C@H]21)C3(C)C [Docetaxel]	4.258
CC(=O)O[C@H]1C(=O)[C@@]2(C)[C@H]([C@H](OC(=O)c3ccccc3)[C@]3(O)C[C@H](OC(=O)[C@H](O)[C@@H](NC(=O)c4ccccc4)c4ccccc4)C(C)=C1C3(C)C)[C@]1(OC(C)=O)CO[C@@H]1C[C@@H]2O [Paclitaxel]	5.029
CC(=O)Nc1ccc(O)cc1 [Acetaminophen]	0.917
CC[C@H]1OC(=O)[C@H](C)[C@@H](O[C@H]2C[C@@](C)(OC)[C@@H](O)[C@H](C)O2)[C@H](C)[C@@H](O[C@@H]2O[C@H](C)C[C@H](N(C)C)[C@H]2O)[C@](C)(O)C[C@@H](C)C(=O)[C@H](C)[C@@H](O)[C@]1(C)O [Erythromycin]	3.06
